Results taken from publication PMC7349888, “Synthesis and Evaluation of Dodecaboranethiol Containing Kojic Acid (KA-BSH) as a Novel Agent for Boron Neutron Capture Therapy” (Cells, 2020).
Several values for one entry are separate records, joined by “and”; a condition that tells them apart may be missing. Equal entries are not always repeated.

Tests used:
F98 rat glioma cells [1] = assay: In vitro 10B uptake in F98 cells (ICP-AES); type: cell-based; conditions: 24 h incubation in DMEM with 1 mM boron compound
Procedure: For the in vitro ^10B uptake study, B16 mouse melanoma cells, C6 rat glioma cells, and F98 rat glioma cells were used. B16 and C6 cells were used for in vitro testing at Osaka Prefecture University. Based on results from initial in vitro screening, the in vitro ^10B uptake study using F98 glioma cells were performed at Osaka Medical College. Four hundred thousand cells were seeded in a tissue culture dish (100 × 20 mm; Becton Dickinson, Franklin Lakes, NJ, USA) with DMEM supplemented with 10% FBS and 10% penicillin and streptomycin at 37 °C in a 5% CO2 atmosphere. After incubation for 4 days at 37 °C, the medium was removed, and DMEM with 10% FBS containing 1 mM KA-BSH, BSH, or BPA was added to each dish. The cells were incubated for an additional 24 h at 37 °C. The medium was then removed, and the cells were washed twice with 4 °C phosphate-buffered saline (PBS) and detached with trypsin–ethylenediamine tetraacetic acid solution. PBS was then added, and cells were digested overnight with 1 N nitric acid solution (Wako Pure Chemical Industries, Osaka, Japan), and ^10B uptake was determined by inductively coupled plasma atomic emission spectrometry (ICP-AES) using an iCAP6000 emission spectrometer (Hitachi High-Technologies, Tokyo, Japan).

F98 glioma bearing rats = assay: Biodistribution in F98 glioma bearing rats (ICP-AES); type: in vivo, rat; conditions: iv
Source text: All animal experimental procedures were approved by the Animal Use Review Board and Ethical Committee of Osaka Medical College (No. 25092, 28 October 2015) and Kyoto University Research Reactor Institute (KURRI, No. 25030-13, 1 April 2015), and performed following the Guide for the Care and Use of Laboratory Animals. Eight-week-old, male Fischer 344 rats weighing between 200 and 250 g were used (Japan SLC, Inc. Shizuoka, Japan). Rats were anesthetized with an intraperitoneal (ip) injection of a mixture of medetomidine 0.15 mg, midazolam 2 mg, and butorphanol 2.5 mg/kg body weight (bw). The head of each rat was fixed with a stereotactic frame (Model 900; David Kopf Instruments, Tujunga, CA, USA). The scalp was incised at the midline and a small burr hole was drilled into the skull (1 mm posterior and 4 mm right-lateral to the bregma), using an electric drill. And then, F98 glioma cells were injected into the brain using a 25 µL Hamilton microsyringe with a 26-gauge needle (model 1700 RN, Hamilton Bonaduz AG, Bonaduz, Switzerland). The needle was inserted at a 5 mm depth from the skull and F98 cells were diluted in 10 µL of DMEM containing low-gelling temperature agarose at a concentration of either 10^3 for therapeutic experiments or 10^5 cells for biodistribution experiments. They were injected over 30 s using an automatic infuser pump. The needle entry hole was immediately sealed with bone wax and the incised scalp was closed with 3-0 silk sutures (Ethicon, North Ryde, NSW). After surgery, all animals were given atipamezole hydrochloride (0.15 mg/kg bw, ip).
Biodistribution studies were performed in Fischer rats bearing intracerebral implants of F98 rat glioma cells. 10–13 days after tumor implantation of 10^5 F98 glioma cells, when signs of a progressively growing tumor were evident (weight loss, lethargy, hunching, and ataxia), biodistribution studies were initiated at which time the animals had tumors weighing 90–180 mg. […] To compare its biodistribution with that of BPA or BSH, another group of rats received an iv injection of BPA at a concentration of 10 mg ^10B/kg bw or BSH at a concentration of 30 mg ^10B/kg bw. Biodistribution was determined 1 and 3 h after termination of iv injection. Animals were euthanized by an overdose of sevoflurane following which tumors and normal tissues, consisting of ipsilateral brain, contralateral brain, blood, heart, lung, liver, spleen, kidney, skin, and muscle, were removed and weighed for ^10B determination by ICP-AES.

F98 rat glioma cells [2] = assay: Cell viability assay (WST-8) in F98 cells; type: cell-based; conditions: WST-8 test, read-out: IC50 (cytotoxicity)
Procedure: The cytotoxicity of KA-BSH was assayed using the water soluble tetrazolium (WST)-8 assay with a cell-counting kit (Wako Pure Chemicals, Osaka, Japan) following a modified version of the manufacturer-provided protocols. Relative cell survival was calculated according to Equation (1):(1) Relative cell survival (%)=absorbance value of compound treated well/absorbance value of untreated well×100

N[C@@H](Cc1ccc(B(O)O)cc1)C(=O)O [BPA, boronophenylalanine, reference compound]
10B concentration of F98 rat glioma cells (F98 rat glioma cells [1]): 0.654 ± 0.062 µg 10B/10^7 cells
10B concentration, Blood (F98 glioma bearing rats; 10 mg 10B/kg, 1 h): 6.65 µg 10B/g
10B concentration, Contralateral brain (F98 glioma bearing rats; 10 mg 10B/kg, 1 h): 3.19 µg 10B/g
10B concentration, Heart (F98 glioma bearing rats; 10 mg 10B/kg, 1 h): 6.12 µg 10B/g
10B concentration, Ipsilateral brain (F98 glioma bearing rats; 10 mg 10B/kg, 1 h): 2.94 µg 10B/g
10B concentration, Kidney (F98 glioma bearing rats; 10 mg 10B/kg, 1 h): 27.57 µg 10B/g
10B concentration, Liver (F98 glioma bearing rats; 10 mg 10B/kg, 1 h): 5.40 µg 10B/g
10B concentration, Lung (F98 glioma bearing rats; 10 mg 10B/kg, 1 h): 5.74 µg 10B/g
10B concentration, Muscle (F98 glioma bearing rats; 10 mg 10B/kg, 1 h): 5.25 µg 10B/g
10B concentration, Skin (F98 glioma bearing rats; 10 mg 10B/kg, 1 h): 7.22 µg 10B/g
10B concentration, Spleen (F98 glioma bearing rats; 10 mg 10B/kg, 1 h): 7.58 µg 10B/g
10B concentration, Tumor (F98 glioma bearing rats; 10 mg 10B/kg, 1 h): 13.54 µg 10B/g and 13.54 ± 4.82 µg 10B/g
T/Bl (tumor to blood ratio) (F98 glioma bearing rats; 10 mg 10B/kg, 1 h): 2.00
T/Br (tumor to normal contralateral brain ratio) (F98 glioma bearing rats; 10 mg 10B/kg, 1 h): 4.21
10B concentration, Blood (F98 glioma bearing rats; 10 mg 10B/kg, 3 h): 4.41 µg 10B/g
10B concentration, Contralateral brain (F98 glioma bearing rats; 10 mg 10B/kg, 3 h): 2.95 µg 10B/g
10B concentration, Heart (F98 glioma bearing rats; 10 mg 10B/kg, 3 h): 3.92 µg 10B/g
10B concentration, Ipsilateral brain (F98 glioma bearing rats; 10 mg 10B/kg, 3 h): 3.29 µg 10B/g
10B concentration, Kidney (F98 glioma bearing rats; 10 mg 10B/kg, 3 h): 11.69 µg 10B/g
10B concentration, Liver (F98 glioma bearing rats; 10 mg 10B/kg, 3 h): 3.54 µg 10B/g
10B concentration, Lung (F98 glioma bearing rats; 10 mg 10B/kg, 3 h): 4.12 µg 10B/g
10B concentration, Muscle (F98 glioma bearing rats; 10 mg 10B/kg, 3 h): 4.89 µg 10B/g
10B concentration, Skin (F98 glioma bearing rats; 10 mg 10B/kg, 3 h): 4.80 µg 10B/g
10B concentration, Spleen (F98 glioma bearing rats; 10 mg 10B/kg, 3 h): 6.02 µg 10B/g
10B concentration, Tumor (F98 glioma bearing rats; 10 mg 10B/kg, 3 h): 11.05 µg 10B/g
T/Bl (tumor to blood ratio) (F98 glioma bearing rats; 10 mg 10B/kg, 3 h): 2.53
T/Br (tumor to normal contralateral brain ratio) (F98 glioma bearing rats; 10 mg 10B/kg, 3 h): 3.83
IC50 (F98 rat glioma cells [2]): > 20000 µM

dodecaboranethiol [BSH, reference compound]
10B concentration of F98 rat glioma cells (F98 rat glioma cells [1]): 0.508 ± 0.072 µg 10B/10^7 cells
10B concentration, Blood (F98 glioma bearing rats; 30 mg 10B/kg, 1 h): 19.17 µg 10B/g
10B concentration, Contralateral brain (F98 glioma bearing rats; 30 mg 10B/kg, 1 h): 0.32 µg 10B/g
10B concentration, Heart (F98 glioma bearing rats; 30 mg 10B/kg, 1 h): 3.25 µg 10B/g
10B concentration, Ipsilateral brain (F98 glioma bearing rats; 30 mg 10B/kg, 1 h): 0.44 µg 10B/g
10B concentration, Kidney (F98 glioma bearing rats; 30 mg 10B/kg, 1 h): 20.84 µg 10B/g
10B concentration, Liver (F98 glioma bearing rats; 30 mg 10B/kg, 1 h): 20.81 µg 10B/g
10B concentration, Lung (F98 glioma bearing rats; 30 mg 10B/kg, 1 h): 12.70 µg 10B/g
10B concentration, Muscle (F98 glioma bearing rats; 30 mg 10B/kg, 1 h): 5.25 µg 10B/g
10B concentration, Skin (F98 glioma bearing rats; 30 mg 10B/kg, 1 h): 7.99 µg 10B/g
10B concentration, Spleen (F98 glioma bearing rats; 30 mg 10B/kg, 1 h): 5.68 µg 10B/g
10B concentration, Tumor (F98 glioma bearing rats; 30 mg 10B/kg, 1 h): 5.49 µg 10B/g and 5.49 ± 0.25 µg 10B/g
T/Bl (tumor to blood ratio) (F98 glioma bearing rats; 30 mg 10B/kg, 1 h): 0.29
T/Br (tumor to normal contralateral brain ratio) (F98 glioma bearing rats; 30 mg 10B/kg, 1 h): 17.61
10B concentration, Blood (F98 glioma bearing rats; 30 mg 10B/kg, 3 h): 5.16 µg 10B/g
10B concentration, Contralateral brain (F98 glioma bearing rats; 30 mg 10B/kg, 3 h): 0.24 µg 10B/g
10B concentration, Heart (F98 glioma bearing rats; 30 mg 10B/kg, 3 h): 1.15 µg 10B/g
10B concentration, Ipsilateral brain (F98 glioma bearing rats; 30 mg 10B/kg, 3 h): 0.36 µg 10B/g
10B concentration, Kidney (F98 glioma bearing rats; 30 mg 10B/kg, 3 h): 10.83 µg 10B/g
10B concentration, Liver (F98 glioma bearing rats; 30 mg 10B/kg, 3 h): 8.10 µg 10B/g
10B concentration, Lung (F98 glioma bearing rats; 30 mg 10B/kg, 3 h): 4.92 µg 10B/g
10B concentration, Muscle (F98 glioma bearing rats; 30 mg 10B/kg, 3 h): 0.87 µg 10B/g
10B concentration, Skin (F98 glioma bearing rats; 30 mg 10B/kg, 3 h): 4.00 µg 10B/g
10B concentration, Spleen (F98 glioma bearing rats; 30 mg 10B/kg, 3 h): 2.74 µg 10B/g
10B concentration, Tumor (F98 glioma bearing rats; 30 mg 10B/kg, 3 h): 3.01 µg 10B/g
T/Bl (tumor to blood ratio) (F98 glioma bearing rats; 30 mg 10B/kg, 3 h): 0.61
T/Br (tumor to normal contralateral brain ratio) (F98 glioma bearing rats; 30 mg 10B/kg, 3 h): 12.71
IC50 (F98 rat glioma cells [2]): 1680 µM
